Assay results from patent publication US20090131351A1, “Methods, compositions, and kits for modulating tumor cell proliferation” (Antisoma Research Limited, priority 2007, published 2009).
Where “and” joins values, the source holds several entries; their conditions need not be identical. Equal entries are not always repeated.

What was measured:
[1] = test system: human AML cell line MV4-11 xenografts; assay: Combination therapy in a xenograft mouse model; type: in vivo, nu/nu MF1 mouse; conditions: for Fractional Tumor Volume (FTV) relative to untreated controls: single agent; for Average volume of tumors at 7 days post-treatment (tumor volume change): group average, Cytarabine 80 mg/kg/daily i.p.; for Average volume of tumors at 7 days post-treatment (tumor volume change) / Volume of individual tumors at 7 days post-treatment (indicating tumor volume change): day 7, AS1411 40 mg/kg/day s.c. minipump; for Volume of individual tumors at 7 days post-treatment (indicating tumor volume change): individual mice, Cytarabine 80 mg/kg/daily i.p. 5 days
Description: The nu/nu MF1 mouse strain has been used previously at these laboratories and background data are available. A total of 50 female MF1 mice were obtained from the Biological Research Facility, SGHMS, London) in a weight range of 5 to 6 weeks of age (nominally 23-28 g). Mice were individually identified using a subcutaneously implanted microchip.
The xenografts were prepared from the human AML cell line MV4-11 (DSMZ Number: CCL-102). Cells were grown in accordance with Standard Operating Procedures (SOP) and established methodology; suitable methods are known in the art. Cells were suspended at 2.0×10^8 cells/ml in ice-cold PBS, mixed 1:1 with ice-cold Matrigel™ Matrix (BD Biosciences, Lot 61459) and kept on ice until the time of injection into animals. Mice were injected subcutaneously with 100 μl cell suspension on the right flank.
Animals were checked regularly until visible tumors appeared. Tumors were measured in accordance with the relevant SOP twice per week and tumor volume calculated using the formula: Volume=(π÷6000)×(Tumor Length×Tumor Width×Tumor Height).
Measurements commenced approximately one week before the day of treatment when the xenograft had reached a volume of >0.03 cm^3.
Once the tumors were established, mice were allocated into groups using a randomisation procedure based on stratified xenograft volume. Measurements were recorded electronically using electronic calipers and the Trojan system for data capture.
Day 0 is defined as the day on which the average tumor volume is between 0.07 to 0.08 cm^3. Relative tumor volume on Day 0 is defined as 1.
AS1411 (manufactured by Avecia, UK, batch number: AQV-07H-005; expiry date 02/2009) was given by continuous infusion using ALZET mini-osmotic pumps (Durect Corp. CA, USA). The mini-pumps were implanted subcutaneously on days 0 on the left flank of mice (opposite to the tumor location). Mice received a dose of 40 mg/kg/day with a dose-volume of 1 μl/h lasting for 7 days. The minipumps were then removed and a second drug-loaded minipump implantation in the same location to last a further 7 days.
The intraperitoneal route of administration of Cytarabine was selected. Mice were administered with Cytarabine (DBL, Australia; batch number: TO11966AA; expiry date 02/2009) at 80 mg/kg/daily for 5 consecutive days with a dose-volume of 8 μl/g body weight starting on day 0. After 2 days gap a second cycle of a similar 5-day dosing was initiated on day 7. Control mice were untreated.
Mice (n=10) were allocated to groups as follows: • Untreated controls • Cytarabine alone • AS1411 alone • Cytarabine+AS1411
The Fractional Product method was used to analyse the combination therapy (Yokohama et al., 2000, Cancer Res., 60:2190-6). According to this method, the effects of two drugs, when combined, can be calculated by multiplying the fractional tumor volume (treated volume/control volume on a given day) by each single drug. If the effect of the drugs acting simultaneously is equal to or larger than that calculated, it would be assumed that additivity, or synergism, respectively, has occurred.
[Mean tumor volume test]/[Mean tumor volume control]
[Mean FTV of […]]×[Mean FTV of AS1411]
[Expected FTV]/[Observed FTV]
A combination therapy index R>1.0 indicates a synergistic effect.
A combination therapy index R<1.0 indicates a less than additive effect.

[2] = test system: MV4-11 cells (AML cell line); assay: Sulphorhodamine B assay, MV4-11 cells; type: cell-based, human; conditions: 6 days
Description: 1 μM AS1411 was added with varying concentrations of cytarabine (0.002 to 1.5 μM) and cells were incubated for 6 days. A control was run with the 1 μM AS1411 without cytarabine. A second control series was run with the varying amounts of cytarabine but with no AS1411 present.
The remaining cell mass after exposure to AS1411 was measured with a spectrophotometer and IC50 determined.

HGC.27 = assay: Tumor cell line sensitivity to AS1411; type: cell-based
AML cell line = assay: Apoptosis, caspase, DNA fragmentation, PS externalization and cell cycle effects of AS1411 in AML cell line; type: cell-based; conditions: AS1411 administered to AML cell line
SK-MEL-28 = assay: Tumor cell line sensitivity to AS1411; type: cell-based
HL-60 (AML cell line) = assay: Sulphorhodamine B assay, HL-60 cells; type: cell-based; conditions: 6 days, SRB
Description: (§1) MV4-11 cells (AML cell line available and obtained from ATCC under catalogue number CRL-9591) were seeded in wells of a 96-well plate at a number optimised for each cell line. 1 μM AS1411 was added with varying concentrations of cytarabine (0.002 to 1.5 μM) and cells were incubated for 6 days. A control was run with the 1 μM AS1411 without cytarabine. A second control series was run with the varying amounts of cytarabine but with no AS1411 present.
(§2) Cells were then washed, fixed to the 96-well plate and exposed to the dye Sulphorhodamine B (SRB; available from Sigma-Aldrich, Dorset, UK; catalogue number S-1402). The remaining cell mass after exposure to AS1411 was measured with a spectrophotometer and IC50 determined.
(§3) Multiple haematological cancer cell lines were exposed to varying concentrations of AS1411 over a period of 6 days according to the Sulphorhodamine B assay described in Example 1. […] (See FIG. 2). […] Normal fibroblast and B cells were however unaffected by similar concentrations of AS1411.

MCF-7 = assay: Tumor cell line sensitivity to AS1411; type: cell-based
CALU06 = assay: Tumor cell line sensitivity to AS1411; type: cell-based
Normal fibroblast = assay: Effect of AS1411 on normal cells; type: cell-based; conditions: similar concentrations of AS1411
Text: as §3

B cells = assay: Effect of AS1411 on normal cells; type: cell-based; conditions: similar concentrations of AS1411
Text: as §3

HT-29 = assay: Tumor cell line sensitivity to AS1411; type: cell-based
SKOV-3 = assay: Tumor cell line sensitivity to AS1411; type: cell-based
KATO III = assay: Tumor cell line sensitivity to AS1411; type: cell-based
PC3 = assay: Tumor cell line sensitivity to AS1411; type: cell-based
KG-1 (AML cell line) = assay: Sulphorhodamine B assay, KG-1 cells; type: cell-based; conditions: 6 days, SRB
Description: as §1, §2, §3

U87-MG = assay: Tumor cell line sensitivity to AS1411; type: cell-based
PANC-1 = assay: Tumor cell line sensitivity to AS1411; type: cell-based
A549 = assay: Tumor cell line sensitivity to AS1411; type: cell-based
A498 = assay: Tumor cell line sensitivity to AS1411; type: cell-based
LS174T = assay: Tumor cell line sensitivity to AS1411; type: cell-based
ZR75-1 = assay: Tumor cell line sensitivity to AS1411; type: cell-based
DU-145 = assay: Tumor cell line sensitivity to AS1411; type: cell-based

Compound: Nc1ccn([C@@H]2O[C@H](CO)[C@@H](O)[C@@H]2O)c(=O)n1 [Cytarabine, 1β-arabinofuranosylcytosine, reference compound]
- Relative tumor volume (relative to tumor volume at Day 0 of treatment) ([1]; Day 0 (defined as 1)): 1.000
- Relative tumor volume (relative to tumor volume at Day 0 of treatment) ([1]; Day 4): 1.900
- Fractional Tumor Volume (FTV) relative to untreated controls ([1]; Day 4): 0.713
- Relative tumor volume (relative to tumor volume at Day 0 of treatment) ([1]; Day 7): 3.100
- Fractional Tumor Volume (FTV) relative to untreated controls ([1]; Day 7): 0.844
- Average volume of tumors at 7 days post-treatment (tumor volume change) [1]: Average = 3.1
- Volume of individual tumors at 7 days post-treatment (indicating tumor volume change) [1]: 7.2 and 3.5 and 2.8 and 1.5 and 2.4 (2×) and 3.4 and 2.5 and 2.2 and 1.1
- reduction of IC50 of cytarabine by combination with AS1411 ([2]; cytarabine 0.002 to 1.5 μM with 1 μM AS1411 vs cytarabine alone): more than three-fold

Compound: 5′-GGTGGTGGTGGTTGTGGTGG TGGTGG-3′ [AS1411]
- Relative tumor volume (relative to tumor volume at Day 0 of treatment) ([1]; Day 0 (defined as 1)): 1.000
- Relative tumor volume (relative to tumor volume at Day 0 of treatment) ([1]; Day 4): 2.500
- Fractional Tumor Volume (FTV) relative to untreated controls ([1]; Day 4): 0.848
- Relative tumor volume (relative to tumor volume at Day 0 of treatment) ([1]; Day 7): 3.900
- Fractional Tumor Volume (FTV) relative to untreated controls ([1]; Day 7): 0.915
- Average volume of tumors at 7 days post-treatment (tumor volume change) [1]: Average = 3.9
- Volume of individual tumors at 7 days post-treatment (indicating tumor volume change) [1]: 3.5 and 5.9 and 3.0 and 3.3 and 4.8 and 5.5 and 2.5 (2×) and 3.8 and 4.5 and 1.1
- sensitivity to AS1411 (HGC.27): sensitivity
- DNA fragmentation (AML cell line): dose-dependent increase
- PS externalization (AML cell line): increase
- apoptosis (AML cell line): induction
- caspase activity (AML cell line): increase
- cell cycle effect in tumor cells (AML cell line): arrest at the S-phase
- sensitivity to AS1411 (SK-MEL-28): sensitivity
- IC50 (HL-60 (AML cell line)): low
- sensitivity to AS1411 (MCF-7): sensitivity
- sensitivity to AS1411 (CALU06): sensitivity
- effect on normal cells (Normal fibroblast): unaffected
- effect on normal cells (B cells): unaffected
- sensitivity to AS1411 (HT-29): sensitivity
- sensitivity to AS1411 (SKOV-3): sensitivity
- sensitivity to AS1411 (KATO III): sensitivity
- sensitivity to AS1411 (PC3): sensitivity
- IC50 (KG-1 (AML cell line)): low
- sensitivity to AS1411 (U87-MG): sensitivity
- sensitivity to AS1411 (PANC-1): sensitivity
- sensitivity to AS1411 (A549): sensitivity
- sensitivity to AS1411 (A498): sensitivity
- IC50 ([2]; AS1411 alone, SRB): low
- sensitivity to AS1411 (LS174T): sensitivity
- sensitivity to AS1411 (ZR75-1): sensitivity
- sensitivity to AS1411 (DU-145): sensitivity
